Measurements: US20230322815A1, “NOVEL COMPOUNDS AND THERAPEUTIC USES THEREOF” (University of Huddersfield, priority 2020, published 2023)

System: H460 tumors
Test: Chick embryo chorioallantoic membrane (CAM) assay, in ovo efficacy
Format: in vivo, human tumor cells on chick embryo CAM
Conditions: for doses giving statistically significant regression of tumor growth (mean tumor weight at E18) / doses giving reduction of tumor growth comparable to SoC: L2Zn3 54, 108, 216 μM, L2Cu3 42, 84, 168 μM; for doses giving statistically significant regression of tumor growth (mean tumor weight at E18): 100 μl on tumor graft at E11, E13, E15, E17; for doses giving reduction of tumor growth comparable to SoC: SoC paclitaxel; for H460 metastatic load in the lower CAM (qPCR for Alu sequences): all three tested doses
Experimental: FIG. 21. Activity of [L2Cu3]^6+ and [L2Zn3]^6+ against primary H460 tumors. The results presented represent the mean tumour weight±SEM following treatment at 3 different doses of [L2Cu3]^6+ and [L2Zn3]^6+: L2Zn3 [1]=54 μM, L2Zn3 [2]=108 μM, L2Zn3 [3]=216 μM; L2Cu3 [1]=42 μM, L2Cu3[2]=84 μM, L2Cu3[3]=168 μM. SoC paclitaxel. Statistical analysis by one way ANOVA (*): 0.05≥p value >0.01; (**): 0.01≥p value >0.001; (***): 0.001≥p value; (****): 0.0001≥p value. Number per experimental group n=10-13.
FIG. 22. Evaluation of the effects of [L2Cu3]^6+ and [L2Zn3]^6+ on primary H460 metastasis to the lower CAM. Relative ALU expression (relative to chicken GAPDH) as a quantitive marker of metastasis of human cells to the lower CAM. L2Zn3 [1]=54 μM, L2Zn3 [2]=108 μM, L2Zn3 [3]=216 μM; L2Cu3 [1]=42 μM, L2Cu3[2]=84 μM, L2Cu3[3]=168 μM. SoC paclitaxel. Relative expression ±SEM. Statistical analysis by one way ANOVA (*): 0.05≥p value >0.01; (**): 0.01≥p value >0.001; (***): 0.001≥p value; (****): 0.0001≥p value. Number per experimental group n=7-8.
[L2Cu3]^6+ and [L2Zn3]^6+ were evaluated at three different doses for in ovo anti-cancer activity, toxicity and anti-metastatic activity against tumors initiated from three different human cancer cell line models (H460, HT29, HCT116), in the chick embryo chorioallantoic membrane (CAM) assay.
Each compound was provided to the contract research organisation (CRO) Inovotion (La Tronche, France) conducting the in ovo study, as a powder pre-weighed in single vials (2 equivalents of ligand, 3 equivalents of metal; and stored at room temperature). Before use, this was then dissolved in DMSO to 50 mM to generate a stock solution and further freshly diluted in RPM11640 or McCoys aqueous cell culture media for administration.
A standard of care (SoC) drug for the particular tumour type was tested concurrently as a comparative control for in vivo efficacy and toxicity evaluation. A solvent control served as a negative control for both SoC and experimental compounds.
10^6 tumor cells (H460, HT29 or HCT116) were grafted onto the upper chorioallantoic membrane (CAM) of the developing chick embryo on embryonic day 9 (E9). Access to the upper CAM was through a small hole drilled through the eggshell of fertilized White Leghorn eggs (into the air sac) on E9 (15 eggs per experimental group).
100 μl of freshly prepared experimental compound, vehicle control or standard-of-care (SoC) drug at their working concentrations were pipetted onto the tumor graft at E11, E13, E15 and E17. On day E18, the upper CAM (with tumor) was removed, washed by PBS buffer and then directly transferred in PFA (fixation for 48 hrs). After that, tumors were carefully cut away from normal CAM tissue and weighed.
On day E18, a 1 cm^2 portion of the lower CAM was collected (n=8 per group), stored at −20° C. and later processed to extract DNA. Samples were analysed for human genomic DNA (qPCR for Alu sequences) as a quantitative marker of tumor metastasis to the lower CAM.

Row | Structure (SMILES) | doses giving statistically significant regression of tumor growth (mean tumor weight at E18) | doses giving reduction of tumor growth comparable to SoC | H460 metastatic load in the lower CAM (qPCR for Alu sequences)
1 | [Zn+2].[Zn+2].[Zn+2].c1ccc(-c2csc(NCCN(CCNc3nc(-c4ccccn4)cs3)CCNc3nc(-c4ccccn4)cs3)n2)nc1.c1ccc(-c2csc(NCCN(CCNc3nc(-c4ccccn4)cs3)CCNc3nc(-c4ccccn4)cs3)n2)nc1 [[L2Zn3]^6+] | all three tested doses | all three tested doses | Statistically significant decreases
2 | [Cu+2].[Cu+2].[Cu+2].c1ccc(-c2csc(NCCN(CCNc3nc(-c4ccccn4)cs3)CCNc3nc(-c4ccccn4)cs3)n2)nc1.c1ccc(-c2csc(NCCN(CCNc3nc(-c4ccccn4)cs3)CCNc3nc(-c4ccccn4)cs3)n2)nc1 [[L2Cu3]^6+] | the two highest tested doses | the highest dose | no statistically significant metastatic regression
